# Results as given in publication PMC12699035, “Exploring market-approved azoles as potential breast cancer therapeutics targeting the VEGFR-2 biotarget” (Scientific Reports, 2025).
# Like-named read-outs stand apart in the source and are kept apart here.
# Legend:
# [1] = tested on: Solid Ehrlich Carcinoma (SEC); assay: In vivo anti-tumor activity in solid Ehrlich carcinoma (SEC)-bearing mice (tumor mass, volume, TIR%, hematology, histopathology)
# Procedure: All experimental protocols were approved by the Research Ethics Committee and Institutional Animal Care and Use Committee, Faculty of Science, Suez Canal University with the ethical code (SCU-Sci-REC439/2025), and all methods were carried out according to the European Union guidelines and in accordance with ARRIVE guidelines. All animals were anesthetized using a combination of Xylazine 10 mg/kg- Ketamine 100 mg/kg of body weight, respectively, prior sacrifice via cervical decapitation.
# In all graphs, treatments were administrated intraperitoneal (IP) with 6 mg/Kg B.Wt. for two weeks, day after day.
# SIT, FLU and TNZ were tested using the five dose sigmoidal curves to determine the IC50 values. They were tested for the VEGFR2 inhibition using VEGFR2 Kinase Inhibition Assay Kit Catalog # 40325 BPS Bioscience, San Diego, CA. […] At the end of these experiment, anti-tumor potentiality was recorded using tumor weight (mg), tumor volume (mm^3), and the tumor inhibition ratio (TIR%). Hematological parameters of Hemoglobin (Hb, g/dL), RBC’s count (10^6/μL), and WBC’s count (10^3/μL) were investigated, along with histopathological and immunohistochemical staining of the VEGR2 protein.
# Adult female Swiss albino mice purchased from Faculty of Pharmacy, Suez Canal University, Ismailia, Egypt, with an average body weight of (18-23) g was used. Mice were housed under constant conditions of 12 h light/dark cycle in a […], with free access to standard laboratory mice food and water. All procedures related to care and maintenance of the animals were performed according to the international guiding principles for animal research and approved by the Faculty of Pharmacy, Suez Canal University bioethics and animal ethics committee.
# Solid Ehrlich carcinoma (SEC) was got from the National Cancer Institute (Cairo University, Egypt). The tumor cell line proliferated in mice through serial intraperitoneal (I.P.) transplantation of a volume of 0.2 mL physiological saline containing 1×10^6 viable cells for 24 h. SEC cells were collected 7 days after I.P. implantation. The harvested cells were diluted with saline to obtain a concentration of 5×10^6 viable SEC cells/mL. A volume of 0.2 mL saline contains 1×10^6 SEC cells that were I.P. implanted into each normal mouse. SEC cells (1×10^6 tumor cells/mouse) were implanted subcutaneously into the right thigh of the hind limb.
# The experimental animals were randomly divided into four groups. Group 1 served as the normal saline control. Group 2 served as the SEC control (1×10^6 cells/mouse). Group 3 served as the ITR-treated group (6 mg/kg B.Wt., I.P.). […] Body weight and survival were recorded daily until the 24th day in both treated and control groups. At the end of the experiment, anesthetized animals were then sacrificed for evaluation of the antitumor activity and histopathological examination.
# It includes tumor volume, weight, and tumor inhibition ratio (TIR%). Time interval measurements of tumor volume using a digital Vernier caliper (Tricle Brand, Shanghai, China). Measure tumor length and width using a clipper and then calculate tumor volume using formulations V = (L x W x W)/2, where V is tumor volume, W is tumor width, L is tumor length. While TIR% was calculated according to the following equation Tumor volume Control-Tumor volume (treated)Tumor volume (control)x 100.
# Specimens of liver-sacrificed mice were fixed in 10% saline formalin. The fixed liver specimens were Dehydrated in ascending series of ethyl alcohol and embedded in paraffin.
# MCF-7 cells = assay: Cytotoxicity against MCF-7 cells, MTT assay (single dose and five doses)
smiles,measurement,setting,value
"CCC(C)n1ncn(-c2ccc(N3CCN(c4ccc(OCC5COC(Cn6cncn6)(c6ccc(Cl)cc6Cl)O5)cc4)CC3)cc2)c1=O (stereo not shown) [Itraconazole, itraconazole]",solid tumor mass,"[1]; 6 mg/Kg B.Wt. IP, two weeks, day after day, SEC control 469 mg",237 mg
same,tumor volume,"[1]; 6 mg/Kg B.Wt. IP, two weeks, day after day, SEC control 420 mm^3",221 mm^3
same,Tumor inhibition ratio (TIR%),"[1]; 6 mg/Kg B.Wt. IP, two weeks, day after day, TIR% = C − T/C × 100",47.4%
same,WBC's count,"[1]; 6 mg/Kg IP, normal 5, SEC control 9.2",6.7 10^3/µL
same,RBC's count,"[1]; 6 mg/Kg IP, normal 6.9, SEC control 3.1",5.1 10^6/µL
same,Hemoglobin level,"[1]; 6 mg/Kg IP, normal 11.6, SEC control 4.6",6.8 g/dL
same,Tumor cell density (histopathology of SEC mass),"[1]; isolated tumor mass, SEC control 2.2 cm^2",1.2 cm^2
same,viability at 100 µg/mL,"MCF-7 cells; Homo sapiens, MCF7, read-out: Average viability%",69.5%
same,IC50,"MCF-7 cells; Homo sapiens, MCF7, read-out: MCF-7 IC50 ± SD, MCF-7, five dose concentrations, MTT, n = 3",25.7 ± 0.9 µM
same,viability at 100 µg/mL,"MCF-7 cells; Homo sapiens, MCF7, read-out: Viability (%) 1",70.8%
same,viability at 100 µg/mL,"MCF-7 cells; Homo sapiens, MCF7, read-out: Viability (%) 2",70.1%
same,viability at 100 µg/mL,"MCF-7 cells; Homo sapiens, MCF7, read-out: Viability (%) 3",67.7%
same,Average OD,"MCF-7 cells; MCF-7, single dose 100 μg/mL, MTT optical density, average of triplicates",2.24
same,OD1,"MCF-7 cells; MCF-7, single dose 100 μg/mL, MTT optical density, replicate 1",2.28
same,OD2,"MCF-7 cells; MCF-7, single dose 100 μg/mL, MTT optical density, replicate 2",2.26
same,OD3,"MCF-7 cells; MCF-7, single dose 100 μg/mL, MTT optical density, replicate 3",2.18
